According to patent US20070135383A1, “Phospholipase inhibitors, including multi-valent phospholipase inhibitors, and use thereof, including as lumen-localized phospholipase inhibitors” (priority 2005, published 2007):

Legend:
human PLA2 IB enzyme = human PLA2 IB enzyme (Homo sapiens, UniProt P04054); conditions: versus the human PLA2 IB enzyme; cited from earlier work
Porcine PLA2 IB = target: T1, Porcine PLA2 IB (Sus scrofa, UniProt P00592); experiment: Continuous fluorimetric PLA2 assay, PPyrPG vesicles (Example 1B-1); assay type: biochemical; conditions: restated in Example 10, refers to Example 1B-1; read-out: IC-50 value
T1 construct: purchased
T1 sequence (P00592 23-146): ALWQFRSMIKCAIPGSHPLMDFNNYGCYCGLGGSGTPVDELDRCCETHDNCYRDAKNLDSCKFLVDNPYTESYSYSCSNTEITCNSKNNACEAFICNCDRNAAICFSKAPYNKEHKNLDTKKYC
Excerpt: A continuous fluorimetric assay for PLA2 activity described in the literature was used to determine IC (Leslie, C C and Gelb, M H (2004) Methods in Molecular Biology “Assaying phospholipase A2 activity”, 284: 229-242, Singer, A G, et al. (2002) Journal of Biological Chemistry “Interfacial kinetic and binding properties of the complete set of human and mouse groups I, II, V, X, and XII secreted phospholipases A2”, 277: 48535-48549, Bezzine, S, et al. (2000) Journal of Biological Chemistry “Exogenously added human group X secreted phospholipase A(2) but not the group IB, IIA, and V enzymes efficiently release arachidonic acid from adherent mammalian cells”, 275: 3179-3191) and references therein.
Generally, this assay used a phosphatidylglycerol (or phosphatidylmethanol) substrate with a pyrene fluorophore on the terminal end of the sn-2 fatty acyl chain. […] The effect of a given inhibitor and inhibitor concentration on any given phospholipase can be determined. […]
In this example, the procedure was performed as follows: • 1. […] The fluorescence was read using an excitation of 342 nm and an emission of 395 nm.
In this example, the IC50 was calculated using the BioDataFit 1.02 (Four Parameter Model) software package. […]

[1] = Pharmacokinetic study of ILY-4001, IV and oral (Example 1B-3); assay type: in vivo, mice; conditions: 30 mg/kg oral
Description: This example evaluated the bioavailability of ILY-4001 [2-(3-(2-amino-2-oxoacetyl)-1-(biphenyl-2-ylmethyl)-2-methyl-1H-indol-4-yloxy)acetic acid], alternatively referred to herein as methyl indoxam. Specifically, a pharmokinetic study was conducted to determine the fraction of unchanged ILY-4001 in systemic circulation following administration.
Bioavailability was calculated as a ratio of AUC-oral/AUC-intravenous (IV). To determine this ratio, a first set of subject animals were given a measured intravenous (IV) dose of ILY-4001, followed by a determination of ILY-4001 levels in the blood at various time points after administration (e.g., 5 minutes through 24 hours). Another second set of animals was similarly dosed using oral administration, with blood levels of ILY-4001 determined at various time points after administration (e.g., 30 minutes through 24 hours). The level of ILY-4001 in systemic circulation were determined by generally accepted methods (for example as described in Evans, G., A Handbook of Bioanalysis and Drug Metabolism. Boca Raton, CRC Press (2004)). Specifically, […]/mass spectrometry/mass spectrometry (LC/MS/MS) analytical methods were used to quantitate plasma concentrations of ILY-4001 after oral and intravenous administration. Pharmacokinetic parameters that were measured include Cmax, AUC, tmax, t1/2, and F (bioavailability). […]

human PLA2 IB enzyme, sequence (P04054 23-148): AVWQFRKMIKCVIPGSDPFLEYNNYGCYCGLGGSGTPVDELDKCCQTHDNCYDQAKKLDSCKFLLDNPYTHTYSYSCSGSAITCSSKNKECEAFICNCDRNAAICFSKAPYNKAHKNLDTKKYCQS

**Q.** With `Cc1c(C(=O)C(N)=O)c2c(OCC(=O)O)cccc2n1Cc1ccccc1-c1ccccc1` [ILY-4001, 2-(3-(2-amino-2-oxoacetyl)-1-(biphenyl-2-ylmethyl)-2-methyl-1H-indol-4-yloxy)acetic acid] as the molecule, how does the IC50 (human PLA2 IB enzyme) read?
**A.** ~200 nM

**Q.** And the IC50 (Porcine PLA2 IB)?
**A.** ~62 nM

**Q.** What about the “level of non-absorption from the GI tract into systemic circulation” value [1] of the same molecule?
**A.** ~72%
